Data taken from US20250346574A1, “PYRIDINYL SUBSTITUTED OXOISOINDOLINE COMPOUNDS FOR THE TREATMENT OF CANCER” (Bristol-Myers Squibb Company, priority 2021, published 2025).

Molecular target: Helios (Homo sapiens, UniProt Q96SW2+Q9UKS7)
Assay: Helios Human T Regulatory Cells Degradation Assay
Assay type: cell-based
Set-up: fluorescently labelled antibodies against Helios in 1× Permeabilization buffer; endogenous in cells; host or cells: cryopreserved human T regulatory cells
Settings: cryopreserved human T regulatory cells, incubated 20 hours, Helios-APC antibody staining, flow cytometry; read-out: hTreg Helios DC50
Summary of the method: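 Cryopreserved human Treg cells thawed in RPMI+10% FBS+20 ng/mL IL-2, rested 3 h, then incubated with compound 20 hours at 37° C, 5% CO2. Near-IR viability stain, permeabilization, flow cytometry read-out.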

Sequence of Helios (Q9UKS7 whole entry): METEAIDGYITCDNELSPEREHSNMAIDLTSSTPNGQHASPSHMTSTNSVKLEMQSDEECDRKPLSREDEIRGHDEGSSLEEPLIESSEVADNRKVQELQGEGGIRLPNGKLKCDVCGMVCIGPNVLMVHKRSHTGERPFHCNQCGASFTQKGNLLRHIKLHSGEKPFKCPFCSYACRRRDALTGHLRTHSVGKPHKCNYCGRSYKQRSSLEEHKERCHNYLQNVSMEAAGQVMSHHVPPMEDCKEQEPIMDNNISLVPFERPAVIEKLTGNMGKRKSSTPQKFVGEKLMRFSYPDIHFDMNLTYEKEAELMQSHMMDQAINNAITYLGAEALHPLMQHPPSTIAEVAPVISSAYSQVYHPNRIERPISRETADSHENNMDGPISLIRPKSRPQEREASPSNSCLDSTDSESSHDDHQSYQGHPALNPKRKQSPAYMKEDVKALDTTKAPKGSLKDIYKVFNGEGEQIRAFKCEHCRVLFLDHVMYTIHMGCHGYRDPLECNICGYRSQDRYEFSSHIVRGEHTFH
Sequence of Helios (Q96SW2 whole entry): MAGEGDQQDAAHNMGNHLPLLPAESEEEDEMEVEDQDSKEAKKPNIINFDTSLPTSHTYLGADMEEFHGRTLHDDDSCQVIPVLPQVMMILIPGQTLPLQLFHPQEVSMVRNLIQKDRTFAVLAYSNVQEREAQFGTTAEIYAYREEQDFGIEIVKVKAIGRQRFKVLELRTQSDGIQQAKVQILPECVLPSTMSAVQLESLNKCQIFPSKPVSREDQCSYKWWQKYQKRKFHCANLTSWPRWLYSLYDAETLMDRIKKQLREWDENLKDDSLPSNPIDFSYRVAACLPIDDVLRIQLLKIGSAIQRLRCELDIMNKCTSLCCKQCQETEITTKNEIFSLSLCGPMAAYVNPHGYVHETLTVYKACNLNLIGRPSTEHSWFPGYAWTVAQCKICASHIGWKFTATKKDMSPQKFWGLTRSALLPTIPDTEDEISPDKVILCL
Sequence of Helios (Q16531 whole entry partner): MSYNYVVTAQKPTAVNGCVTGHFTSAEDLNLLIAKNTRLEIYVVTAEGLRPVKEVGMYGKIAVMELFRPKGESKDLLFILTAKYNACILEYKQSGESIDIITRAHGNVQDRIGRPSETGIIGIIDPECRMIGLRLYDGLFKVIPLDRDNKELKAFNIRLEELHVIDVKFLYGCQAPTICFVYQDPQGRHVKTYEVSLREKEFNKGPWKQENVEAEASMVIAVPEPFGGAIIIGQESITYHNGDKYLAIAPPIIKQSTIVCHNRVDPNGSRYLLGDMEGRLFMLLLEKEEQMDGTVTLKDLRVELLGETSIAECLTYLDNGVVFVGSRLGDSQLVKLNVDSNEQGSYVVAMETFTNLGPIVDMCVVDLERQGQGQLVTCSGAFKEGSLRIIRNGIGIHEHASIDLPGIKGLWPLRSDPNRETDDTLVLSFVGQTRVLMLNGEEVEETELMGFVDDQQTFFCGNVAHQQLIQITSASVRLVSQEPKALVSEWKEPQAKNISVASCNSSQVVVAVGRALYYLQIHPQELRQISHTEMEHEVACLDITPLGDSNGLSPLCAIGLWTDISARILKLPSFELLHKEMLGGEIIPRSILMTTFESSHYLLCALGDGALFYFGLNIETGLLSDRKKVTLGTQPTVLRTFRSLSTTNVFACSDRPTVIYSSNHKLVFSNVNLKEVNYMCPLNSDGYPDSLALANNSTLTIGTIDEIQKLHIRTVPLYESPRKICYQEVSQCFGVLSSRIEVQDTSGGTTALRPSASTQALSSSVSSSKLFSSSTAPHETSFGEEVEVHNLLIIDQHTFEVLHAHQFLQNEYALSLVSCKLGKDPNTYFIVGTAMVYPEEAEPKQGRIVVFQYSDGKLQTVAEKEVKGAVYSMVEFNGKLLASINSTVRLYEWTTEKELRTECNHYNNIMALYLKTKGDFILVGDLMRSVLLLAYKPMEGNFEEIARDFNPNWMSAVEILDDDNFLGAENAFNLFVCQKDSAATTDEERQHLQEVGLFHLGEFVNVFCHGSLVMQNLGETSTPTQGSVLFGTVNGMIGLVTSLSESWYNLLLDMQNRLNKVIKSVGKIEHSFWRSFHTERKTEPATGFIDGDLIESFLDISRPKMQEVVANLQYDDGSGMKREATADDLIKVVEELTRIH

Row | Compound | DC50
1 | C[C@](O)(c1ccccc1)[C@H]1CCCN1Cc1ccnc(-c2ccc3c(c2)CN(C2CCC(=O)NC2=O)C3=O)c1F (stereo partly drawn) [Example 218, 3-(5-(3-fluoro-4-(((R)-2-((S)-1-hydroxy-1-phenylethyl)pyrrolidin-1-yl)methyl)pyridin-2-yl)-1-oxoisoindolin-2-yl)piperidine-2,6-dione] | 4130 nM
2 | CC1(C)CN(Cc2ccnc(-c3ccc4c(c3)CN(C3CCC(=O)NC3=O)C4=O)c2F)CCC1O (centres unmarked) [Example 221, 3-(5-(3-fluoro-4-((4-hydroxy-3,3-dimethylpiperidin-1-yl)methyl)pyridin-2-yl)-1-oxoisoindolin-2-yl)piperidine-2,6-dione] | 13900 nM
3 | CC(=O)N1CC2CCC(C1)N2Cc1ccnc(-c2ccc3c(c2)CN(C2CCC(=O)NC2=O)C3=O)c1F (centres unmarked) [Example 227, 3-(5-(4-((3-acetyl-3,8-diazabicyclo[3.2.1]octan-8-yl)methyl)-3-fluoropyridin-2-yl)-1-oxoisoindolin-2-yl)piperidine-2,6-dione] | ≥ 10000 nM
4 | O=C1CCC(N2Cc3cc(-c4nccc(CN5CCC(O)(c6ccc(F)cc6)C5)c4F)ccc3C2=O)C(=O)N1 (centres unmarked) [Example 234, 3-(5-(3-fluoro-4-((3-(4-fluorophenyl)-3-hydroxypyrrolidin-1-yl)methyl)pyridin-2-yl)-1-oxoisoindolin-2-yl)piperidine-2,6-dione] | 8410 nM
5 | CC(C)(C)OC(=O)N[C@H]1C[C@H](F)CN(Cc2ccnc(-c3ccc4c(c3)CN(C3CCC(=O)NC3=O)C4=O)c2F)C1 (stereo partly drawn) [Example 236, tert-butyl ((3S,5S)-1-((2-(2-(2,6-dioxopiperidin-3-yl)-1-oxoisoindolin-5-yl)-3-fluoropyridin-4-yl)methyl)-5-fluoropiperidin-3-yl)carbamate] | ≥ 10000 nM
6 | CC1CC(O)(c2ccc(F)cc2)CN1Cc1ccnc(-c2ccc3c(c2)CN(C2CCC(=O)NC2=O)C3=O)c1F (centres unmarked) [Example 237, 3-(5-(3-fluoro-4-((4-(4-fluorophenyl)-4-hydroxy-2-methylpyrrolidin-1-yl)methyl)pyridin-2-yl)-1-oxoisoindolin-2-yl)piperidine-2,6-dione] | ≥ 10000 nM
7 | COC(=O)N[C@H]1CN(Cc2ccnc(-c3ccc4c(c3)CN(C3CCC(=O)NC3=O)C4=O)c2F)C[C@@H]1O (stereo partly drawn) [Example 248, methyl ((3S,4S)-1-((2-(2-(2,6-dioxopiperidin-3-yl)-1-oxoisoindolin-5-yl)-3-fluoropyridin-4-yl)methyl)-4-hydroxypyrrolidin-3-yl)carbamate] | ≥ 10000 nM
8 | O=C1CCC(N2Cc3cc(-c4nccc(CN5CCC6(CC5)OCc5ccccc56)c4F)ccc3C2=O)C(=O)N1 (centres unmarked) [Example 249, 3-(5-(4-((3H-spiro[isobenzofuran-1,4′-piperidin]-1′-yl)methyl)-3-fluoropyridin-2-yl)-1-oxoisoindolin-2-yl)piperidine-2,6-dione] | ≥ 10000 nM
9 | O=C1CCC(N2Cc3cc(-c4nccc(CN5CCCC(O)(c6ccccc6)C5)c4F)ccc3C2=O)C(=O)N1 (centres unmarked) [Example 250, 3-(5-(3-fluoro-4-((3-hydroxy-3-phenylpiperidin-1-yl)methyl)pyridin-2-yl)-1-oxoisoindolin-2-yl)piperidine-2,6-dione] | ≥ 10000 nM
10 | CC(=O)N1CC2(CCN(Cc3ccnc(-c4ccc5c(c4)CN(C4CCC(=O)NC4=O)C5=O)c3F)CC2)C1 (centres unmarked) [Example 251, 3-(5-(4-((2-acetyl-2,7-diazaspiro[3.5]nonan-7-yl)methyl)-3-fluoropyridin-2-yl)-1-oxoisoindolin-2-yl)piperidine-2,6-dione] | ≥ 10000 nM
11 | COC(=O)N1CC2(CCN(Cc3ccnc(-c4ccc5c(c4)CN(C4CCC(=O)NC4=O)C5=O)c3F)CC2)C1 (centres unmarked) [Example 252, methyl 7-((2-(2-(2,6-dioxopiperidin-3-yl)-1-oxoisoindolin-5-yl)-3-fluoropyridin-4-yl)methyl)-2,7-diazaspiro[3.5]nonane-2-carboxylate] | ≥ 10000 nM
12 | O=C1CCC(N2Cc3cc(-c4nccc(CN5CCCC(F)(c6ccccc6)C5)c4F)ccc3C2=O)C(=O)N1 (centres unmarked) [Example 253, 3-(5-(3-fluoro-4-((3-fluoro-3-phenylpiperidin-1-yl)methyl)pyridin-2-yl)-1-oxoisoindolin-2-yl)piperidine-2,6-dione] | ≥ 10000 nM
13 | O=C1CCC(N2Cc3cc(-c4nccc(CN5CCc6[nH]ncc6C5)c4F)ccc3C2=O)C(=O)N1 (centres unmarked) [Example 254, 3-(5-(3-fluoro-4-((1,4,6,7-tetrahydro-5H-pyrazolo[4,3-c]pyridin-5-yl)methyl)pyridin-2-yl)-1-oxoisoindolin-2-yl) piperidine-2,6-dione] | ≥ 10000 nM
14 | O=C1CCC(N2Cc3cc(-c4nccc(CN5CCC(O)(c6ccccc6)C5)c4F)ccc3C2=O)C(=O)N1 (centres unmarked) [Example 257, 3-(5-(3-fluoro-4-((3-hydroxy-3-phenylpyrrolidin-1-yl)methyl)pyridin-2-yl)-1-oxoisoindolin-2-yl)piperidine-2,6-dione] | ≥ 10000 nM
15 | O=C1CCC(N2Cc3cc(-c4nccc(CN5CC[C@@H](F)C5)c4F)ccc3C2=O)C(=O)N1 (stereo partly drawn) [Example 258, 3-(5-(3-fluoro-4-(((R)-3-fluoropyrrolidin-1-yl)methyl)pyridin-2-yl)-1-oxoisoindolin-2-yl)piperidine-2,6-dione] | ≥ 10000 nM
16 | O=C1CCC(N2Cc3cc(-c4nccc(CN5CCc6oncc6C5)c4F)ccc3C2=O)C(=O)N1 (centres unmarked) [Example 259, 3-(5-(4-((6,7-dihydroisoxazolo[4,5-c]pyridin-5(4H)-yl)methyl)-3-fluoropyridin-2-yl)-1-oxoisoindolin-2-yl)piperidine-2,6-dione] | ≥ 10000 nM

Stronger by DC50, values ahead:

Row | DC50 | Compound
17 | 2760 nM | O=C1CCC(N2Cc3cc(-c4nccc(CN5CCC6(CC5)CC(O)CO6)c4F)ccc3C2=O)C(=O)N1 (centres unmarked) [Example 222, 3-(5-(3-fluoro-4-((3-hydroxy-1-oxa-8-azaspiro[4.5]decan-8-yl)methyl)pyridin-2-yl)-1-oxoisoindolin-2-yl)piperidine-2,6-dione]
18 | 1140 nM | Cc1ccc(C)c(C2(O)CCN(Cc3ccnc(-c4ccc5c(c4)CN(C4CCC(=O)NC4=O)C5=O)c3F)C2)c1 (centres unmarked) [Example 256, 3-(5-(4-((3-(2,5-dimethylphenyl)-3-hydroxypyrrolidin-1-yl)methyl)-3-fluoropyridin-2-yl)-1-oxoisoindolin-2-yl)piperidine-2,6-dione]
19 | 492 nM | CC1(O)CC2CN(Cc3ccnc(-c4ccc5c(c4)CN(C4CCC(=O)NC4=O)C5=O)c3F)CC2C1 (centres unmarked) [Example 255, 3-(5-(3-fluoro-4-((5-hydroxy-5-methylhexahydrocyclopenta[c]pyrrol-2(1H)-yl)methyl)pyridin-2-yl)-1-oxoisoindolin-2-yl)piperidine-2,6-dione]
20 | 390 nM | C[C@@](O)(c1ccccc1)[C@H]1CCCN1Cc1ccnc(-c2ccc3c(c2)CN(C2CCC(=O)NC2=O)C3=O)c1F (stereo partly drawn) [Example 217, 3-(5-(3-fluoro-4-(((R)-2-((R)-1-hydroxy-1-phenylethyl)pyrrolidin-1-yl)methyl)pyridin-2-yl)-1-oxoisoindolin-2-yl)piperidine-2,6-dione]
21 | 330 nM | O=C1CCC(N2Cc3cc(-c4nccc(CN5CCC(O)(Cc6ccccc6)CC5)c4F)ccc3C2=O)C(=O)N1 (centres unmarked) [Example 235, 3-(5-(4-((4-benzyl-4-hydroxypiperidin-1-yl)methyl)-3-fluoropyridin-2-yl)-1-oxoisoindolin-2-yl)piperidine-2,6-dione]
22 | 242 nM | Cc1cc(C2CCCN2Cc2ccnc(-c3ccc4c(c3)CN(C3CCC(=O)NC3=O)C4=O)c2F)on1 (centres unmarked) [Example 244, 3-(5-(3-fluoro-4-((2-(3-methylisoxazol-5-yl)pyrrolidin-1-yl)methyl)pyridin-2-yl)-1-oxoisoindolin-2-yl)piperidine-2,6-dione]
23 | 172 nM | O=C1CCC(N2Cc3cc(-c4nccc(CN5CCC(O)(c6ccccc6Cl)C5)c4F)ccc3C2=O)C(=O)N1 (centres unmarked) [Example 238, 3-(5-(4-((3-(2-chlorophenyl)-3-hydroxypyrrolidin-1-yl)methyl)-3-fluoropyridin-2-yl)-1-oxoisoindolin-2-yl)piperidine-2,6-dione]
24 | 72.9 nM | CC1(O)CN(Cc2ccnc(-c3ccc4c(c3)CN(C3CCC(=O)NC3=O)C4=O)c2F)C1 (centres unmarked) [Example 224, 3-(5-(3-fluoro-4-((3-hydroxy-3-methylazetidin-1-yl)methyl)pyridin-2-yl)-1-oxoisoindolin-2-yl)piperidine-2,6-dione]
25 | 51.5 nM | O=C1CCC(N2Cc3cc(-c4nccc(CN5CCC(O)CC5)c4F)ccc3C2=O)C(=O)N1 (centres unmarked) [Example 226, 3-(5-(3-fluoro-4-((4-hydroxypiperidin-1-yl)methyl)pyridin-2-yl)-1-oxoisoindolin-2-yl)piperidine-2,6-dione]
26 | 38.6 nM | C[C@@H]1CN(Cc2ccnc(-c3ccc4c(c3)CN(C3CCC(=O)NC3=O)C4=O)c2F)C[C@H]1O (stereo partly drawn) [Example 232, 3-(5-(3-fluoro-4-(((3S,4R)-3-hydroxy-4-methylpyrrolidin-1-yl)methyl)pyridin-2-yl)-1-oxoisoindolin-2-yl)piperidine-2,6-dione]
27 | 34.2 nM | CC1(O)CCCN(Cc2ccnc(-c3ccc4c(c3)CN(C3CCC(=O)NC3=O)C4=O)c2F)CC1 (centres unmarked) [Example 220, 3-(5-(3-fluoro-4-((4-hydroxy-4-methylazepan-1-yl)methyl)pyridin-2-yl)-1-oxoisoindolin-2-yl)piperidine-2,6-dione]
28 | 29.3 nM | O=C1CCC(N2Cc3cc(-c4nccc(CN5CCC6(CC5)CC(O)C6)c4F)ccc3C2=O)C(=O)N1 (centres unmarked) [Example 225, 3-(5-(3-fluoro-4-((2-hydroxy-7-azaspiro[3.5]nonan-7-yl)methyl)pyridin-2-yl)-1-oxoisoindolin-2-yl)piperidine-2,6-dione]
29 | 9.8 nM | O=C1CCC(N2Cc3cc(-c4nccc(CN5CC6CC(C5)C6O)c4F)ccc3C2=O)C(=O)N1 (centres unmarked) [Example 219, 3-(5-(3-fluoro-4-((6-hydroxy-3-azabicyclo[3.1.1]heptan-3-yl)methyl)pyridin-2-yl)-1-oxoisoindolin-2-yl)piperidine-2,6-dione]
